Legend:
AtSHT [1] = biological target: T1, AtSHT (Arabidopsis thaliana, UniProt O64470); test: X-ray crystal structure; assay type: binding; settings: co-crystallised with spermidine and CoA; 2.3 Å; active site near His155
T1 construct: gene SHT; wild type in pET28a (NdeI/XhoI), E. coli BL21(DE3), Ni-NTA and gel filtration; model residues 1-451
T1 sequence (O64470 1-451): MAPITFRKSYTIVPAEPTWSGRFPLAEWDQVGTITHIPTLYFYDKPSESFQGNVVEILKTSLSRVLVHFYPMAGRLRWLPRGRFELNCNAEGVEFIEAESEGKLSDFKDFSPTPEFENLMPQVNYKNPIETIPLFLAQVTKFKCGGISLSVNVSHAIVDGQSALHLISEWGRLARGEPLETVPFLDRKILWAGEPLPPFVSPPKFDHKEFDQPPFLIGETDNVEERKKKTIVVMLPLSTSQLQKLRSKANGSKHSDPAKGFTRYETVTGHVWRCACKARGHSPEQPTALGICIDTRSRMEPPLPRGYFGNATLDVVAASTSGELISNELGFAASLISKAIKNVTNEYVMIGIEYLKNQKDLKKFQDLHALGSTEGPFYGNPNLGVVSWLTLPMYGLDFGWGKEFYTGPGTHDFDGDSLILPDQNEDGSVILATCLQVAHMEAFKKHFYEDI

NP_190301.2 = biological target: T2, NP_190301.2 (Arabidopsis thaliana, UniProt F4JAD2); test: HPLC-MS product assay; assay type: biochemical; settings: 200 µM putrescine, pH 7.5, 30 °C, 30 min
T2 construct: gene At3g47170; wild type in pET28a (NdeI/XhoI), E. coli BL21(DE3), Ni-NTA and gel filtration
T2 sequence (F4JAD2 1-468): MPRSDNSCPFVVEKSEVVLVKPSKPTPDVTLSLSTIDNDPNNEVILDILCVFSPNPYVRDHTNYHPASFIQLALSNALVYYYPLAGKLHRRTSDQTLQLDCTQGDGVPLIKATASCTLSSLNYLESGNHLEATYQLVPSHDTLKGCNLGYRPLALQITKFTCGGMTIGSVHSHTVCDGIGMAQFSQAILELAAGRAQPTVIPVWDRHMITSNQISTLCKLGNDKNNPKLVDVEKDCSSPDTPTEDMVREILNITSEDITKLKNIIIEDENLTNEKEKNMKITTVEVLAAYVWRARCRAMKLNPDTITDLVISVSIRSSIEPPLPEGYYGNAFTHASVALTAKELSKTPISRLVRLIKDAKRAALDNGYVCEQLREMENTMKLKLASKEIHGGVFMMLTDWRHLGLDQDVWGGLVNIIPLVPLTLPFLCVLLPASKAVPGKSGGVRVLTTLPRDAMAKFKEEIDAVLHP

AtSHT [2] = biological target: T1, AtSHT; test: LC-MS product assay; assay type: biochemical; settings: 60 µM acyl donor, 200 µM spermidine, pH 7.5, 30 °C, 30 min
AtSDT [3] = biological target: T3, AtSDT (Arabidopsis thaliana, UniProt O80467); test: LC-MS product assay; assay type: biochemical; settings: 60 µM acyl donor, 200 µM spermidine, pH 7.5, 30 °C, 30 min
T3 construct: gene SDT; wild type in pET28a (NdeI/XhoI), E. coli BL21(DE3), Ni-NTA and gel filtration
T3 sequence (O80467 1-451): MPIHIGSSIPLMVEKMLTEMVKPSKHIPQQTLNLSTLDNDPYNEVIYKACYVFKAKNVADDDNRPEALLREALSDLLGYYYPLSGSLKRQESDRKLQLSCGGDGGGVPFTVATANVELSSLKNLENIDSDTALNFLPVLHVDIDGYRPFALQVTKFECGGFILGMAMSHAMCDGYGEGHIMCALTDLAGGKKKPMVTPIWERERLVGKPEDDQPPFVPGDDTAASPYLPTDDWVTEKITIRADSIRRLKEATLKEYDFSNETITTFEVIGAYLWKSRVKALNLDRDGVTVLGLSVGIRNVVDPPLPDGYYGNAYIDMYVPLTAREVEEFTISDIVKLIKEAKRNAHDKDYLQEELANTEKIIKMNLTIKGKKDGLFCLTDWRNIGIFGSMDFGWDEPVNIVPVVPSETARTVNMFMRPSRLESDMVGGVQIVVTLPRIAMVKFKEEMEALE

OAO95042.1 = biological target: T4, OAO95042.1 (Arabidopsis thaliana, UniProt F4K5C5); test: HPLC-MS product assay; assay type: biochemical; settings: 200 µM putrescine, 60 µM caffeoyl-CoA, pH 7.5, 30 °C, 30 min
T4 construct: gene At5g07080; wild type in pET28a (NdeI/XhoI), E. coli BL21(DE3), Ni-NTA and gel filtration
T4 sequence (F4K5C5 1-450): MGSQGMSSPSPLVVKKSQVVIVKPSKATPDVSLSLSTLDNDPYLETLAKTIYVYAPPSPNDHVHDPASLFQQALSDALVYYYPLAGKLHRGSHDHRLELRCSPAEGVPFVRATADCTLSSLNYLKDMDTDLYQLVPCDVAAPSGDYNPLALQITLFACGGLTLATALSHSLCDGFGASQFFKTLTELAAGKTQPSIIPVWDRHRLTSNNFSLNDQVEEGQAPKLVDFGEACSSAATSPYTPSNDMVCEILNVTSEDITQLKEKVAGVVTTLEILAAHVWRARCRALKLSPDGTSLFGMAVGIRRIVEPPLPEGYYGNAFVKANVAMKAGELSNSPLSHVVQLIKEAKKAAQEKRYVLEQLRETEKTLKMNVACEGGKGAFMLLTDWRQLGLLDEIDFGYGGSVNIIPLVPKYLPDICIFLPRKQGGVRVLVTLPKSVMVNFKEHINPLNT

AtSDT [4] = biological target: T3, AtSDT; test: LC-MS product assay; X-ray crystal structure; assay type: biochemical; settings: 200 µM spermidine, 60 µM sinapoyl-CoA, pH 7.5, 30 °C, 30 min; ligand in crystal only possible electron density, pose docked
AtSHT [5] = biological target: T1, AtSHT; test: LC-MS product assay; X-ray crystal structure; assay type: biochemical; settings: 200 µM spermidine, 60 µM feruloyl-CoA, pH 7.5, 30 °C, 30 min; ligand in crystal only possible electron density, pose docked

For `CC(C)(COP(=O)(O)OP(=O)(O)OC[C@H]1O[C@@H](n2cnc3c(N)ncnc32)[C@H](O)[C@@H]1OP(=O)(O)O)[C@@H](O)C(=O)NCCC(=O)NCCS` [CoA-HS], the X-ray crystal structure (AtSHT [1]) was “The extra density near His155 was determined as CoA-HS”.
For `CC(C)(COP(=O)(O)OP(=O)(O)OC[C@H]1O[C@@H](n2cnc3c(N)ncnc32)[C@H](O)[C@@H]1OP(=O)(O)O)[C@@H](O)C(=O)NCCC(=O)NCCSC(=O)/C=C/c1ccc(O)c(O)c1` [caffeoyl-CoA], the HPLC-MS product assay (NP_190301.2; 60 µM acyl donor) was “encoded enzymes that could efficiently convert putrescine and caffeoyl-CoA to di-caffeoyl putrescine”.
For `COc1cc(/C=C/C(=O)SCCNC(=O)CCNC(=O)[C@H](O)C(C)(C)COP(=O)(O)OP(=O)(O)OC[C@H]2O[C@@H](n3cnc4c(N)ncnc43)[C@H](O)[C@@H]2OP(=O)(O)O)ccc1O` [feruloyl-CoA], the LC-MS product assay (AtSHT [2]) was “wild-type AtSHT can efficiently convert spermidine and feruloyl-CoA to monoferuloyl spermidine”.
In the case of `COc1cc(/C=C/C(=O)SCCNC(=O)CCNC(=O)[C@H](O)C(C)(C)COP(=O)(O)OP(=O)(O)OC[C@H]2O[C@@H](n3cnc4c(N)ncnc43)[C@H](O)[C@@H]2OP(=O)(O)O)cc(OC)c1O` [sinapoyl-CoA], the LC-MS product assay (AtSDT [3]) is reported as “wild-type AtSDT can efficiently couple spermidine with sinapoyl CoA to yield monosinapoyl”.
In the case of `NCCCCN` [putrescine], the HPLC-MS product assay (NP_190301.2; 60 µM caffeoyl-CoA) is reported as “encoded enzymes that could efficiently convert putrescine and caffeoyl-CoA to di-caffeoyl putrescine” and the HPLC-MS product assay (OAO95042.1) is reported as “encoded enzymes that could efficiently convert putrescine and caffeoyl-CoA to di-caffeoyl putrescine”.
With `NCCCCNCCCN` [spermidine] the “LC-MS product assay; X-ray crystal structure” value (AtSDT [4]) was “wild-type AtSDT can efficiently couple spermidine with sinapoyl CoA to yield monosinapoyl” and the “LC-MS product assay; X-ray crystal structure” value (AtSHT [5]) was “wild-type AtSHT can efficiently convert spermidine and feruloyl-CoA to monoferuloyl spermidine”.

— publication PMC7838080, “Structural and Biochemical Insights Into Two BAHD Acyltransferases (AtSHT and AtSDT) Involved in Phenolamide Biosynthesis” (Frontiers in Plant Science, 2021)
